21 compounds from patent US8796289B2 (AbbVie Inc., priority 2011, dated 2014) can be followed below.

pKi: −log10 of the molar value.

Sequence of GST-tagged-Wee1 kinase (P30291 whole entry): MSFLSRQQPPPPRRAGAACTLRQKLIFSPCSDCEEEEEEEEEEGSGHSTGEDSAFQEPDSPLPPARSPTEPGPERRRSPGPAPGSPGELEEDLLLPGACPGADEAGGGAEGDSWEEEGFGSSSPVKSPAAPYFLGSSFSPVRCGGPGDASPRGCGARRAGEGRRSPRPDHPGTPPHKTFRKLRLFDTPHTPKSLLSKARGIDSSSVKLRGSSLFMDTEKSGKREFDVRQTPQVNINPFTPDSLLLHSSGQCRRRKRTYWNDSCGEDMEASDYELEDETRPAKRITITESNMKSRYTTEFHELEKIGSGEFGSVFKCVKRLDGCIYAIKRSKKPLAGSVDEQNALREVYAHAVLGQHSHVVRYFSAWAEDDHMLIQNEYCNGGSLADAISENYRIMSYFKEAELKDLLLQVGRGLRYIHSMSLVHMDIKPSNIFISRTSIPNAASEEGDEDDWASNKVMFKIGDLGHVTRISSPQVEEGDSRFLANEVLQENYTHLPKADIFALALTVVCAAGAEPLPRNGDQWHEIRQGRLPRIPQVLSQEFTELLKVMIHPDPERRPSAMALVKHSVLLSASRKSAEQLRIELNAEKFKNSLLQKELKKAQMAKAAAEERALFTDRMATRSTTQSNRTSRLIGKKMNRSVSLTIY

The test has as its target GST-tagged-Wee1 kinase (Homo sapiens, UniProt P30291). Kind of test: Wee1 time-resolved fluorescence equilibrium binding assay (displacement of Oregon Green-labeled ATP-competitive kinase probe). As to the method:
Wee1 kinase was assayed using a time-resolved fluorescence equilibrium binding assay monitoring displacement of a rapidly reversible Oregon Green-labeled ATP-competitive kinase probe (N-(2-(2-(2-(4-(4-(5-chloro-4-(2-(1-hydroxycyclobutyl)thiazol-5-yl)-1H-pyrrolo[2,3-b]pyridin-2-yl)phenyl)piperazin-1-yl)ethoxy)ethoxy)ethyl)-2′,7′-difluoro-3′,6′-dihydroxy-3-oxo-3H-spiro[isobenzofuran-1,9′-xanthene]-5-carboxamide) by competitive Wee1 inhibitors.
The term pKi denotes the negative decadic logarithm of the Ki, by convention in mol/L. A lower pKi goes with a high Ki. `Cc1nn(-c2c(Cl)cccc2Cl)c(=O)c2cnc(Nc3ccc(N4CCC(N(C)C)CC4)cc3)nc12` [Example 425, 6-(2,6-dichlorophenyl)-2-({4-[4-(dimethylamino)piperidin-1-yl]phenyl}amino)-8-methylpyrimido[4,5-d]pyridazin-5(6H)-one] showed a pKi of 9.72. As to `CN1CCN(c2ccc(Nc3ncc4c(=O)n(-c5ccccc5Cl)nc(-c5cccc(N6CCCC6)n5)c4n3)cc2)CC1` [Example 181, 6-(2-chlorophenyl)-2-{[4-(4-methylpiperazin-1-yl)phenyl]amino}-8-[6-(pyrrolidin-1-yl)pyridin-2-yl]pyrimido[4,5-d]pyridazin-5(6H)-one], the pKi is 8.22. As to `Cc1ccccc1-n1nc(-c2ccccc2)c2nc(Nc3ccc(N4CCN(C(C)C)CC4)cc3)ncc2c1=O` [Example 134, 2-{[4-(4-isopropylpiperazin-1-yl)phenyl]amino}-6-(2-methylphenyl)-8-phenylpyrimido[4,5-d]pyridazin-5(6H)-one], the negative-log Ki (pKi) is 9.22. To `CN1Cc2cc(Nc3ncc4c(=O)n(-c5c(Cl)cccc5Cl)nc(-c5nccs5)c4n3)ccc2C2(CC2)C1` [Example 320, 6-(2,6-dichlorophenyl)-2-[(2′-methyl-2′,3′-dihydro-1′H-spiro[cyclopropane-1,4′-isoquinolin]-7′-yl)amino]-8-(1,3-thiazol-2-yl)pyrimido[4,5-d]pyridazin-5(6H)-one] belongs 9.31; to `CN1Cc2cc(Nc3ncc4c(=O)n(-c5c(Cl)cccc5Cl)nc(-c5cccc(F)n5)c4n3)ccc2C2(CC2)C1` [Example 227, 6-(2,6-dichlorophenyl)-8-(6-fluoropyridin-2-yl)-2-[(2′-methyl-2′,3′-dihydro-1′H-spiro[cyclopropane-1,4′-isoquinolin]-7′-yl)amino]pyrimido[4,5-d]pyridazin-5(6H)-one], above 9.00. The same measure for `CCc1nn(-c2c(Cl)cccc2Cl)c(=O)c2cnc(Nc3ccc4c(c3)C(C)(C)N(C)CC4)nc12` [Example 461, 6-(2,6-dichlorophenyl)-8-ethyl-2-[(1,1,2-trimethyl-1,2,3,4-tetrahydroisoquinolin-7-yl)amino]pyrimido[4,5-d]pyridazin-5(6H)-one]: 9.17. The same measure for `CN1CCN(c2ccc(Nc3ncc4c(=O)n(-c5c(Cl)cccc5Cl)nc(-c5cn(C)cn5)c4n3)cc2)CC1` [Example 338, 6-(2,6-dichlorophenyl)-8-(1-methyl-1H-imidazol-4-yl)-2-{[4-(4-methylpiperazin-1-yl)phenyl]amino}pyrimido[4,5-d]pyridazin-5(6H)-one]: 9.14; for `Cc1nn(-c2c(Cl)cccc2Cl)c(=O)c2cnc(Nc3ccc4c(c3)CN(C(=O)C3CC3)CC4(C)C)nc12` [Example 440, 2-{[2-(cyclopropylcarbonyl)-4,4-dimethyl-1,2,3,4-tetrahydroisoquinolin-7-yl]amino}-6-(2,6-dichlorophenyl)-8-methylpyrimido[4,5-d]pyridazin-5(6H)-one]: 9.09; for `Cc1nn(-c2c(Cl)cccc2Cl)c(=O)c2cnc(Nc3ccc4c(c3)C(C)(C)N(C)CC4)nc12` [Example 443, 6-(2,6-dichlorophenyl)-8-methyl-2-[(1,1,2-trimethyl-1,2,3,4-tetrahydroisoquinolin-7-yl)amino]pyrimido[4,5-d]pyridazin-5(6H)-one]: 9.52. Regarding `CN1CCN(c2ccc(Nc3ncc4c(=O)n(-c5c(Cl)cccc5Cl)nc(-c5ccn(CCO)n5)c4n3)cc2)CC1` [Example 270, 6-(2,6-dichlorophenyl)-8-[1-(2-hydroxyethyl)-1H-pyrazol-3-yl]-2-{[4-(4-methylpiperazin-1-yl)phenyl]amino}pyrimido[4,5-d]pyridazin-5(6H)-one], the negative logarithm of the Ki (pKi) is above 9.00. To `O=C1CCCN1c1ccc(-c2nn(-c3c(Cl)cccc3Cl)c(=O)c3cnc(Nc4ccc5c(c4)CNCC5)nc23)cc1` [Example 247, 6-(2,6-dichlorophenyl)-8-[4-(2-oxopyrrolidin-1-yl)phenyl]-2-(1,2,3,4-tetrahydroisoquinolin-7-ylamino)pyrimido[4,5-d]pyridazin-5(6H)-one] belongs 9.70; to `Cc1nn(-c2c(F)cccc2Cl)c(=O)c2cnc(Nc3ccc(N4CCN(C)CC4)cc3)nc12` [Example 312, 6-(2-chloro-6-fluorophenyl)-8-methyl-2-{[4-(4-methylpiperazin-1-yl)phenyl]amino}pyrimido[4,5-d]pyridazin-5(6H)-one], 8.72. The same measure for `Cc1ccccc1-n1nc(Cc2ccccc2)c2nc(Nc3ccc(N4CCN(C)CC4)cc3)ncc2c1=O` [Example 20, 8-benzyl-6-(2-methylphenyl)-2-{[4-(4-methylpiperazin-1-yl)phenyl]amino}pyrimido[4,5-d]pyridazin-5(6H)-one]: 7.72; for `O=c1c2cnc(Nc3ccc4c(c3)CNCC43CC3)nc2c(C2CCC2)nn1-c1c(Cl)cccc1Cl` [Example 281, 8-cyclobutyl-6-(2,6-dichlorophenyl)-2-(2′,3′-dihydro-1′H-spiro[cyclopropane-1,4′-isoquinolin]-7′-ylamino)pyrimido[4,5-d]pyridazin-5(6H)-one]: 9.28; for `CN1CCC(n2nc(-c3ccccn3)c3nc(Nc4ccc(N5CCNCC5)cc4)ncc3c2=O)CC1` [Example 322, 6-(1-methylpiperidin-4-yl)-2-{[4-(piperazin-1-yl)phenyl]amino}-8-(pyridin-2-yl)pyrimido[4,5-d]pyridazin-5(6H)-one]: below 5.50. `CN1CCN(c2ccc(Nc3ncc4c(=O)n(-c5c(Cl)cccc5Cl)nc(CF)c4n3)cc2)CC1` [Example 419, 6-(2,6-dichlorophenyl)-8-(fluoromethyl)-2-{[4-(4-methylpiperazin-1-yl)phenyl]amino}pyrimido[4,5-d]pyridazin-5(6H)-one] gave a pKi of 9.72. The same measure for `Cc1nn(-c2c(Cl)cccc2Cl)c(=O)c2cnc(Nc3ccc4c(c3)CCN(C)C4(C)C)nc12` [Example 453, 6-(2,6-dichlorophenyl)-8-methyl-2-[(1,1,2-trimethyl-1,2,3,4-tetrahydroisoquinolin-6-yl)amino]pyrimido[4,5-d]pyridazin-5(6H)-one]: 9.44; for `O=c1c2cnc(Nc3ccc(N4CCNCC4)cc3)nc2c(-c2nccs2)nn1-c1c(Cl)cccc1Cl` [Example 344, 6-(2,6-dichlorophenyl)-2-{[4-(piperazin-1-yl)phenyl]amino}-8-(1,3-thiazol-2-yl)pyrimido[4,5-d]pyridazin-5(6H)-one]: 9.60. The same measure for `CN1CCN(c2ccc(Nc3ncc4c(=O)n(-c5c(Cl)cccc5Cl)nc(-c5cccc(-c6ccc[nH]6)c5)c4n3)cc2)CC1` [Example 92, 6-(2,6-dichlorophenyl)-2-{[4-(4-methylpiperazin-1-yl)phenyl]amino}-8-[3-(1H-pyrrol-2-yl)phenyl]pyrimido[4,5-d]pyridazin-5(6H)-one]: 8.10.

The compound `Cc1ccccc1-n1nc(-c2cccs2)c2nc(Nc3ccc(N4CCCC4=O)cc3)ncc2c1=O` [Example 128, 6-(2-methylphenyl)-2-{[4-(2-oxopyrrolidin-1-yl)phenyl]amino}-8-(2-thienyl)pyrimido[4,5-d]pyridazin-5(6H)-one] gave a pKi of 8.22. The same measure for `Cc1ccccc1-n1nc(-c2ccccc2)c2nc(Nc3ccc(S(=O)(=O)N4CCOCC4)cc3)ncc2c1=O` [Example 109, 6-(2-methylphenyl)-2-{[4-(morpholin-4-ylsulfonyl)phenyl]amino}-8-phenylpyrimido[4,5-d]pyridazin-5(6H)-one]: below 5.50.
